# Source: the supplement of paper PMC13380429
# Experiments:
# Conditions in all cases: 72 h
# U2OS [1] = test: drug sensitivity score (DSS) for viability; higher = more toxic; extreme values may be limits of the assay
# HepG2 [2] = test: as above
# Vero E6 [3] = test: as above
# Calu-3 [4] = test: as above
# Caco-2 [5] = test: as above
# U2OS [6] = test: relative viability EC50 (midpoint between 100% and the lowest measured viability); higher = less toxic
# HepG2 [7] = test: as above
# Vero E6 [8] = test: as above
# Calu-3 [9] = test: as above
# Caco-2 [10] = test: as above
# U2OS [11] = test: cell viability relative to DMSO; higher = less toxic
# HepG2 [12] = test: as above
# Vero E6 [13] = test: as above
# Calu-3 [14] = test: as above
# Caco-2 [15] = test: as above
Structure (SMILES),drug sensitivity score (U2OS [1]),drug sensitivity score (HepG2 [2]),drug sensitivity score (Vero E6 [3]),drug sensitivity score (Calu-3 [4]),drug sensitivity score (Caco-2 [5]),relative viability EC50 (U2OS [6]) [µM],relative viability EC50 (HepG2 [7]) [µM],relative viability EC50 (Vero E6 [8]) [µM],relative viability EC50 (Calu-3 [9]) [µM],relative viability EC50 (Caco-2 [10]) [µM],cell viability (U2OS [11]; 1 nM) [%],cell viability (U2OS [11]; 10 nM) [%],cell viability (U2OS [11]; 100 nM) [%],cell viability (U2OS [11]; 1000 nM) [%],cell viability (U2OS [11]; 10000 nM) [%],cell viability (HepG2 [12]; 1 nM) [%],cell viability (HepG2 [12]; 10 nM) [%],cell viability (HepG2 [12]; 100 nM) [%],cell viability (HepG2 [12]; 1000 nM) [%],cell viability (HepG2 [12]; 10000 nM) [%],cell viability (Vero E6 [13]; 1 nM) [%],cell viability (Vero E6 [13]; 10 nM) [%],cell viability (Vero E6 [13]; 100 nM) [%],cell viability (Vero E6 [13]; 1000 nM) [%],cell viability (Vero E6 [13]; 10000 nM) [%],cell viability (Calu-3 [14]; 1 nM) [%],cell viability (Calu-3 [14]; 10 nM) [%],cell viability (Calu-3 [14]; 100 nM) [%],cell viability (Calu-3 [14]; 1000 nM) [%],cell viability (Calu-3 [14]; 10000 nM) [%],cell viability (Caco-2 [15]; 1 nM) [%],cell viability (Caco-2 [15]; 10 nM) [%],cell viability (Caco-2 [15]; 100 nM) [%],cell viability (Caco-2 [15]; 1000 nM) [%],cell viability (Caco-2 [15]; 10000 nM) [%]
CC[C@H](C)[C@H]1O[C@]2(CC[C@@H]1C)C[C@@H]1C[C@@H](C/C=C(\C)[C@@H](O[C@H]3C[C@H](OC)[C@@H](O[C@H]4C[C@H](OC)[C@@H](O)[C@H](C)O4)[C@H](C)O3)[C@@H](C)/C=C/C=C3\CO[C@@H]4[C@H](O)C(C)=C[C@@H](C(=O)O1)[C@]34O)O2 [ivermectin],0,0.1,0,0,0,> 10,> 10,> 10,> 10,> 10,104,95.1,99.4,96.1,93.9,96.2,98.5,108,107,85,107,103,106,103,87.8,101,107,88.1,97.1,93.6,94.7,90.3,94.2,95.8,108
CC(CCc1ccccc1)NCC(O)c1ccc(O)c(C(N)=O)c1 (stereo not given) [labetalol],0,0,0,0,0,> 10,> 10,> 10,> 10,> 10,97.6,105,98.6,101,99.7,105,100,102,90.5,99.6,97.3,97.2,96.3,92,103,98.7,107,94.8,103,101,88.3,85.3,89.4,91.2,110
CC(C)=CCC[C@](C)(O)[C@@H]1CC=C(C)CC1 [levomenol],0,0,0,0,0,> 10,> 10,> 10,> 10,> 10,96.2,100,96.4,104,103,99.8,100,116,98.1,106,94.6,96.5,99,98.8,108,97.9,98.2,97.2,94.3,100,101,103,82.6,110,95.1
N#Cc1cc(NC(=O)C(=O)O)c(Cl)c(NC(=O)C(=O)O)c1 [lodoxamide],0,0,0,0,0,> 10,> 10,> 10,> 10,> 10,104,102,97.2,102,98.1,102,107,92.7,93.3,93.6,101,99.9,98.6,97.8,93.8,109,100,92.1,96.4,99.4,106,119,99.8,118,128
CC1=CC(=O)c2ccccc2C1=O [menadione],0,0,0,0,0,> 10,> 10,> 10,> 10,> 10,95.4,101,96.4,99.7,93.1,102,100,116,106,99,104,104,99.9,102,95.1,95.8,104,112,97.9,106,100,103,100,104,94.2
CCC(=O)O[C@]1(C(=O)COC(C)=O)CC[C@H]2[C@@H]3C[C@H](C)C4=CC(=O)C=C[C@]4(C)[C@H]3[C@@H](O)C[C@@]21C [methylprednisolone-aceponate],0,0,0,0,0,> 10,> 10,> 10,> 10,> 10,101,94.3,98.5,96.9,98.1,92.1,101,91.1,101,99.3,88,100,92.6,98.3,104,101,91.6,91.1,95.1,96.5,89.6,95.1,97.4,96.5,105
COc1ccc2cc1Oc1cc3c(cc1OC)CC[N+](C)(C)[C@H]3Cc1ccc(cc1)Oc1c(OC)c(OC)cc3c1[C@@H](C2)[N+](C)(C)CC3 [metocurine],0,0,0,0,0,> 10,> 10,> 10,> 10,> 10,97.6,99.3,106,102,99.4,93.3,115,86.2,108,111,91.5,96.8,91.6,102,105,102,88.4,105,96.5,93.2,95.7,92.2,94.8,108,105
CNC[C@@H]1CC[C@@H](N)[C@@H](O[C@H]2[C@H](O)[C@@H](O[C@H]3OC[C@](C)(O)[C@H](NC)[C@H]3O)[C@H](N)C[C@@H]2N)O1 [micronomicin],0,0,0,0,0,> 10,> 10,> 10,> 10,> 10,96,104,99.1,102,99.3,93.8,96.8,105,100,106,98.9,99.8,98.6,99.4,99.4,105,113,105,98,95.5,98.4,96.1,104,96,97.5
CCCCCNCC(N)=O [milacemide],0,0,0,0,0,> 10,> 10,> 10,> 10,> 10,103,100,98.3,101,98.6,109,97.9,95.2,94.6,110,99.9,105,104,97.3,101,108,113,107,99.6,95,100,90.8,91.4,99.6,95.5
c1ccc2c(c1)OC[C@H](CNCCCOc1ccc3c(c1)OCO3)O2 [osemozotan],0,0,0,0,0,> 10,> 10,> 10,> 10,> 10,96.9,99.2,96.9,101,94.2,99.1,105,112,97,106,106,104,103,85.3,100,94,103,109,108,95.9,90.5,108,101,96.5,114
NC(=O)CN1CC(O)CC1=O (stereo not given) [oxiracetam],0,0,0,0,0,> 10,> 10,> 10,> 10,> 10,107,103,97.5,100,98.9,92.6,101,95.8,104,94.8,98.1,101,104,99.2,97.1,101,98,102,93.9,102,98.9,111,94.8,99.1,101
